US9655991B2, “Stable hydrogel compositions including additives” (Allergan Industries, S.A.S., priority 2010, dated 2017)

Test: Oxidative degradation of gel by free radicals (H2O2) on rheometer
Settings: gel with AA2G and lidocaine vs gel with lidocaine
Description: The effect of ascorbic acid 2-glucoside (AA2G™) on HA-based gel matrix oxidative degradation was studied. Oxidation testing was used as it allows testing of the resistance of a HA-based gel matrix to free radicals. Degradation by free radicals was simulated on a rheometer (Haake Rheostress 600) by addition of 1/7 ratio of H2O2 30% on the surface of a spread gel measured with a controlled stress rheometer according to the following method: frequency of 1 Hz with 0.8% controlled strain, during 3600 s at 35° C. The time value is taken at 5 Pa/s.

- Protection against oxidative degradation (factor): 3
SMILES: O=C1O[C@H]([C@@H](O)CO)C(O)=C1O[C@H]1O[C@H](CO)[C@@H](O)[C@H](O)[C@H]1O [Ascorbic acid 2-glucoside (AA2G™), Ascorbic acid 2-glucoside]
